Data reported in patent publication US10077261B2, “Imidazolin-5-one derivative useful as FASN inhibitors for the treatment of cancer” (Janssen Pharmaceutica NV, priority 2012, dated 2018).

Target: T1, hFASN enzyme (full length) (Homo sapiens, UniProt P49327)
T1 construct: 10 μL hFASN enzyme (full length, 300 ng, purified in house); made in house
Experiment: Fatty Acid Synthase (FASN) inhibition scintillation proximity assay
Type: biochemical
Conditions: for inhibition at 10 µM: read-out: Human FASN % inhibition @ 10 μM, 10 μM test compound; for IC50: read-out: Human FASN pIC50 (converted)
Outline: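 Purified full-length hFASN (300 ng) converts ^3H-acetyl-CoA plus malonyl-CoA to ^3H-palmitate in 100 mM KH2PO4 pH 7.5, 1 mM DTT; compounds tested at 0.01–30 μM. Product captured on streptavidin imaging beads and read by LEADseeker at 610 nm after ≥24 h; 4-parameter logistic fit versus controls.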

T1 sequence (P49327 whole entry): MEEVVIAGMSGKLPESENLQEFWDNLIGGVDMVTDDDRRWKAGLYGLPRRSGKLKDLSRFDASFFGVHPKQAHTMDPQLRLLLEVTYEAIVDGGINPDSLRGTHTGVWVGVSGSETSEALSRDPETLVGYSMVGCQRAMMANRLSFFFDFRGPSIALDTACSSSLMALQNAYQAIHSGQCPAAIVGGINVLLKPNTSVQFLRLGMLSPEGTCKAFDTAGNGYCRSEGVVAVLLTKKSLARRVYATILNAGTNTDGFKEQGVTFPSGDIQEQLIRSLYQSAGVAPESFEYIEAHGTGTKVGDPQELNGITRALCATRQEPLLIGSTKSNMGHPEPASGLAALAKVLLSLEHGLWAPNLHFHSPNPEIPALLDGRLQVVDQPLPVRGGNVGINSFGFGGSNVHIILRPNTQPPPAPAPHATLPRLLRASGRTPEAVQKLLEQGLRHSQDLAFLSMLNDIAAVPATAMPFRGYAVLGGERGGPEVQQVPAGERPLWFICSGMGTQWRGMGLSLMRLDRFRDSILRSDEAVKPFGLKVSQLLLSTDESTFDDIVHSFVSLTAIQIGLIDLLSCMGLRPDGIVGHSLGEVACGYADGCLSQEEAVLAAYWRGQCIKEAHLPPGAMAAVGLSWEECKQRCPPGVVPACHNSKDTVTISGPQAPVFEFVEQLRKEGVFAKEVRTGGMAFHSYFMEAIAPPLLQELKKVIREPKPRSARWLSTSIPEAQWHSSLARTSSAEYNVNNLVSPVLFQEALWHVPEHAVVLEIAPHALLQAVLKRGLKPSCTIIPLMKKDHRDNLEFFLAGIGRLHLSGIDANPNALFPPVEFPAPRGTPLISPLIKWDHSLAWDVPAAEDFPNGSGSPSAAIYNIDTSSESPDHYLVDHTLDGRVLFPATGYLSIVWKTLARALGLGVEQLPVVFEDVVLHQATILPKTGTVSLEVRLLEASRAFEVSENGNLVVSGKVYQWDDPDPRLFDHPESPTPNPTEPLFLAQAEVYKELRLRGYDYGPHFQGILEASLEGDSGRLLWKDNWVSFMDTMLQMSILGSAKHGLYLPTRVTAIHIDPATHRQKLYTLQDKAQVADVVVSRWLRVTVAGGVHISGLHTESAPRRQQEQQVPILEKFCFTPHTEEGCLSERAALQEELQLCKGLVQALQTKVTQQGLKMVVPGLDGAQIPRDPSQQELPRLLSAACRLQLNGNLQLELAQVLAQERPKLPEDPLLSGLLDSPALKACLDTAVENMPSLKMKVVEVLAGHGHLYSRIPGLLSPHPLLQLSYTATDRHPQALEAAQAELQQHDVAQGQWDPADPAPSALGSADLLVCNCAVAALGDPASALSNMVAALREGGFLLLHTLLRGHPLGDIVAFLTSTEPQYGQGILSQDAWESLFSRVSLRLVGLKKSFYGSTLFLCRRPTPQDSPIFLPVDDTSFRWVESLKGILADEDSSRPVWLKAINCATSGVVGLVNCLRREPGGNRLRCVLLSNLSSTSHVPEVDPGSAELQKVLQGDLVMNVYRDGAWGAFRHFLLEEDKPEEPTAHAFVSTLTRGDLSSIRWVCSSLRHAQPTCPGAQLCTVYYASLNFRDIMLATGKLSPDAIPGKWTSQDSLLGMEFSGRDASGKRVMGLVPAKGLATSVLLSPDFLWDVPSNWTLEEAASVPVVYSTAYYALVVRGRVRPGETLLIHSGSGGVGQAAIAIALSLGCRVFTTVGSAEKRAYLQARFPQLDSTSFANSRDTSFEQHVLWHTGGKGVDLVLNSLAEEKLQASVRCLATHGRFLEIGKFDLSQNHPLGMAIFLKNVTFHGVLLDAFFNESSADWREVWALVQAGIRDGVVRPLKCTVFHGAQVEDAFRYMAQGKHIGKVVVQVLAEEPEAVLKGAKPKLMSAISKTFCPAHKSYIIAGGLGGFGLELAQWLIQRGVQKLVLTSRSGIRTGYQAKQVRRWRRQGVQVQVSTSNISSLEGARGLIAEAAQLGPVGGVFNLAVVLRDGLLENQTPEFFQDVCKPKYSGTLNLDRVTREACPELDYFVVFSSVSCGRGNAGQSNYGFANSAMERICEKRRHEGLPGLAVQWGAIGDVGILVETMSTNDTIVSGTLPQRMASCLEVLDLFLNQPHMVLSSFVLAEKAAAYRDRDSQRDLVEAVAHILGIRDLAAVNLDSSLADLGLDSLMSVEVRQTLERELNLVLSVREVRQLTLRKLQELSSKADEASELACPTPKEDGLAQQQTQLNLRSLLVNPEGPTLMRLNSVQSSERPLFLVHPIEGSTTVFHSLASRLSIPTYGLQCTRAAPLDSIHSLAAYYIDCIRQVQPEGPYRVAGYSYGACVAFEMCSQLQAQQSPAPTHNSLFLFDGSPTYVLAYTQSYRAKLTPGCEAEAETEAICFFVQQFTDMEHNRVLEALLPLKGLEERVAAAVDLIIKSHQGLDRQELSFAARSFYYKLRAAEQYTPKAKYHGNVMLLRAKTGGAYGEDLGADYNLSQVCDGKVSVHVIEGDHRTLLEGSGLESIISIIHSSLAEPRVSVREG

Work on `Cn1cc(-c2ccc(-c3ccc(C4=NC5(CCOCC5)C(=O)N4CC4CN(C(=O)C5CC5)C4)cc3)cc2)cn1` [compound 694, 3-{[1-(Cyclopropylcarbonyl)azetidin-3-yl]methyl}-2-[4-(1-methyl-1H-pyrazol-4-yl)biphenyl-4-yl]-8-oxa-1,3-diazaspiro[4.5]dec-1-en-4-one] yielded an inhibition at 10 µM of 69% and an IC50 of 2.45 µM.

`O=C(N1CCCC1)N1CC(CN2C(=O)C3(CCOC3)N=C2c2ccc(-c3ccc4occc4c3)cc2)C1` (stereo not drawn) [compound 721, 2-[4-(1-Benzofuran-5-yl)phenyl]-3-{[1-(pyrrolidin-1-ylcarbonyl)azetidin-3-yl]methyl}-7-oxa-1,3-diazaspiro[4.4]non-1-en-4-one] gave an inhibition at 10 µM of 63% and an IC50 of 5.75 µM.

In the case of `N#Cc1ccc(-c2ccc(C3=NC4(CC4)C(=O)N3CC3CCN(C(=O)C4CC4)CC3)cc2)cc1` [compound 7, 4′-(6-{[1-(Cyclopropylcarbonyl)piperidin-4-yl]methyl}-7-oxo-4,6-diazaspiro[2.4]hept-4-en-5-yl)biphenyl-4-carbonitrile], the inhibition at 10 µM is reported as 33.7%.

Molecule `O=CNc1cc(-c2ccc(C3=NC4(CC4)C(=O)N3CC3CN(C(=O)C4CC4)C3)cc2)ccc1O` [compound 54, N-[4′-(6-{[-(Cyclopropylcarbonyl)azetidin-3-yl]methyl}-7-oxo-4,6-diazaspiro[2.4]hept-4-en-5-yl)-4-hydroxybiphenyl-3-yl]formamide] has an inhibition at 10 µM of 64.7% and an IC50 of 4.68 µM.

In the case of `CC(C)(O)c1ccc(-c2ccc(C3=NC4(CC4)C(=O)N3CC3CN(C(=O)C4CC4)C3)cc2)cn1` [compound 797, 6-((1-(cyclopropanecarbonyl)azetidin-3-yl)methyl)-5-(4-(6-(2-hydroxypropan-2-yl)pyridin-3-yl)phenyl)-4,6-diazaspiro[2.4]hept-4-en-7-one], the inhibition at 10 µM is reported as 1% and the IC50 is reported as > 10 µM.

For `O=C(C1CC1)N1CC[C@H](CN2C(=O)C3(CC3)N=C2c2ccc(-c3ccc(O)cc3)cc2)C1` [compound 408, 6-{[(3S)-1-(Cyclopropylcarbonyl)pyrrolidin-3-yl]methyl}-5-(4′-hydroxybiphenyl-4-yl)-4,6-diazaspiro[2.4]hept-4-en-7-one], the inhibition at 10 µM was 63% and the IC50 was 5.13 µM.

For `O=C(C1CC1)N1CC[C@@H](CN2C(=O)C3(CC3)N=C2c2cnc(-c3ccc4occc4c3)cn2)C1` [compound 439, 5-[5-(1-Benzofuran-5-yl)pyrazin-2-yl]-6-{[(3R)-1-(cyclopropylcarbonyl)pyrrolidin-3-yl]methyl}-4,6-diazaspiro[2.4]hept-4-en-7-one], the inhibition at 10 µM was 48% and the IC50 was 9.55 µM.

`O=C(C1CC1)N1CC(CN2C(=O)C3(CC3)N=C2c2ccc(-c3ccc(N4CCCC4)nc3)cc2)C1` [compound 482, 6-{[1-(Cyclopropylcarbonyl)azetidin-3-yl]methyl}-5-[4-(6-pyrrolidin-1-ylpyridin-3-yl)phenyl]-4,6-diazaspiro[2.4]hept-4-en-7-one] gave an inhibition at 10 µM of 76% and an IC50 of 1.32 µM.

For `Cn1cc(-c2ccc(-c3ccc(C4=NC5(CCOCC5)C(=O)N4C[C@@H]4CCN(C(=O)c5nccs5)C4)cc3)cc2)cn1` [compound 948, (R)-2-(4′-(1-methyl-1H-pyrazol-4-yl)-[1,1′-biphenyl]-4-yl)-3-((1-(thiazole-2-carbonyl)pyrrolidin-3-yl)methyl)-8-oxa-1,3-diazaspiro[4.5]dec-1-en-4-one], the inhibition at 10 µM was 25% and the IC50 was > 10 µM.

In the case of `O=C(C1CC1)N1CCC(CN2C(=O)C3(CC3)N=C2c2ccc(-c3cccc(F)c3)cc2)CC1` [compound 158, 6-{[1-(Cyclopropylcarbonyl)piperidin-4-yl]methyl}-5-(3′-fluorobiphenyl-4-yl)-4,6-diazaspiro[2.4]hept-4-en-7-one], the inhibition at 10 µM is reported as 33% and the IC50 is reported as > 10 µM.

In the case of `CC(C)N1CCC2(CC1)N=C(c1ccc(-c3ccc4[nH]ncc4c3)cc1)N(CC1CN(C(=O)C3CC3)C1)C2=O` [compound 188, 3-{[1-(Cyclopropylcarbonyl)azetidin-3-yl]methyl}-2-[4-(1H-indazol-5-yl)phenyl]-8-(1-methylethyl)-1,3,8-triazaspiro[4.5]dec-1-en-4-one], the inhibition at 10 µM is reported as 50.4% and the IC50 is reported as ~10 µM.

With `Cn1ncc2cc(-c3ccc(C4=NC5(CCOC5)C(=O)N4CC4CN(C(=O)c5nccs5)C4)cc3)ccc21` (stereo not drawn) [compound 909, 2-(4-(1-methyl-1H-indazol-5-yl)phenyl)-3-((1-(thiazole-2-carbonyl)azetidin-3-yl)methyl)-7-oxa-1,3-diazaspiro[4.4]non-1-en-4-one] the inhibition at 10 µM was 6% and the IC50 was > 10 µM.

Work on `Cc1oc2ccc(-c3ccc(C4=NC5(CC5)C(=O)N4CC4CN(C(=O)C5CC5)C4)cc3F)cc2c1C` [compound 417, 6-{[1-(Cyclopropylcarbonyl)azetidin-3-yl]methyl}-5-[4-(2,3-dimethyl-1-benzofuran-5-yl)-3-fluorophenyl]-4,6-diazaspiro[2.4]hept-4-en-7-one] yielded an inhibition at 10 µM of 62% and an IC50 of 5.25 µM.

`O=C(C1CC1)N1CC(CN2C(=O)C3(CCN(C(=O)C(F)(F)F)CC3)N=C2c2ccc(-c3ccc4occc4c3)cc2)C1` [compound 764, 2-[4-(1-Benzofuran-5-yl)phenyl]-3-{[1-(cycloprropylcarbonyl)azetidin-3-yl]methyl}-8-(trifluoroacetyl)-1,3,8-triazaspiro[4.5]dec-1-en-4-one] was tested, and the inhibition at 10 µM was 63% and the IC50 was ~4.37 µM.

`NC(=O)CN1CC[C@@H](CN2C(=O)C3(CCN(Cc4ccccc4)CC3)N=C2c2ccc(-c3ccc4occc4c3)cc2)C1` [compound 95, 2-[(3R)-3-({2-[4-(1-Benzofuran-5-yl)phenyl]-8-benzyl-4-oxo-1,3,8-triazaspiro[4.5]dec-1-en-3-yl}methyl)pyrrolidin-1-yl]acetamide] was tested, and the inhibition at 10 µM was 24.4% and the IC50 was > 10 µM.

For `O=C(C1CC1)N1CC(CN2C(=O)C3(CCN(C(=O)C(F)(F)F)CC3)N=C2c2ccc(-c3ccc4c(ccn4C(=O)C(F)(F)F)c3)cc2)C1` [compound 952, 3-((1-(cyclopropanecarbonyl)azetidin-3-yl)methyl)-8-(2,2,2-trifluoroacetyl)-2-(4-(1-(2,2,2-trifluoroacetyl)-1H-indol-5-yl)phenyl)-1,3,8-triazaspiro[4.5]dec-1-en-4-one], the inhibition at 10 µM was 45% and the IC50 was > 10 µM.

`O=C(C1CC1)N1CC[C@@H](CN2C(=O)C3(CC3)N=C2c2cnc(-c3ccc4occc4c3)nc2)C1` [compound 458, 5-[2-(1-Benzofuran-5-yl)pyrimidin-5-yl]-6-{[(3R)-1-(cyclopropylcarbonyl)pyrrolidin-3-yl]methyl}0-4,6-diazaspiro[2.4]hept-4-en-7-one] showed an inhibition at 10 µM of 48% and an IC50 of 8.13 µM.

`O=C(C1CC1)N1CCC[C@H](CN2C(=O)C3(CC3)N=C2c2ccc(-c3ccc4sccc4c3)cc2)C1` [compound 817, (S)-5-(4-(benzo[b]thiophen-5-yl)phenyl)-6-((1-(cyclopropanecarbonyl)piperidin-3-yl)methyl)-4,6-diazaspiro[2.4]hept-4-en-7-one] was tested, and the inhibition at 10 µM was 1% and the IC50 was > 10 µM.

With `COC(=O)N1CC2(C1)N=C(c1ccc(-c3ccc4c(cnn4C)c3)cc1)N(C[C@@H]1CCN(C(=O)C(F)(F)F)C1)C2=O` [compound 907, (R)-methyl 6-(4-(1-methyl-1H-indazol-5-yl)phenyl)-8-oxo-7-((1-(2,2,2-trifluoroacetyl)pyrrolidin-3-yl)methyl)-2,5,7-triazaspiro[3.4]oct-5-ene-2-carboxylate] the inhibition at 10 µM was 21% and the IC50 was > 10 µM.

`COc1cc(-c2ccc3occc3c2)ccc1C1=NC2(CCCC2)C(=O)N1C[C@@H]1CCN(C(=O)C2CC2)C1` [compound 156, 2-[4-(1-Benzofuran-5-yl)-2-methoxyphenyl]-3-{[(3R)-1-(cyclopropylcarbonyl)pyrrolidin-3-yl]methyl}-1,3-diazaspiro[4.4]non-1-en-4-one] showed an inhibition at 10 µM of 108% and an IC50 of 0.191 µM.

With `COCCN1CCC2(CC1)N=C(c1ccc(-c3ccc4[nH]ncc4c3)cc1)N(CC1CN(C(=O)C3CC3)C1)C2=O` [compound 756] the inhibition at 10 µM was 82% and the IC50 was 1.58 µM.

In the case of `O=C(C1CC1)N1CC(CN2C(=O)C3(CC3)N=C2c2ccc(-c3cnc4cccnc4c3)cc2)C1` [compound 801, 5-(4-(1,5-naphthyridin-3-yl)phenyl)-6-((1-(cyclopropanecarbonyl)azetidin-3-yl)methyl),4-6diazaspiro[2.4]hept-4-en-7-one], the inhibition at 10 µM is reported as 6% and the IC50 is reported as > 10 µM.

Work on `Cn1ncc2cc(-c3ccc(C4=NC5(CCOC5)C(=O)N4CC4CN(C(=O)[C@H]5CCCO5)C4)cc3)ccc21` (stereo partly drawn) [compound 724, 2-[4-(1-Methyl-1H-indazol-5-yl)phenyl]-3-({1-[(2R)-tetrahydro-furan-2-ylcarbonyl]azetidin-3-yl}methyl)-7-oxa-1,3-diazaspiro[4.4]non-1-en-4-one] yielded an inhibition at 10 µM of 47% and an IC50 of 4.17 µM.

With `Cn1nc2ccc(-c3ccc(C4=NC5(CC5)C(=O)N4C[C@@H]4CCN(C(=O)C5CC5)C4)cc3)cc2c1CO` [compound 487, 6-{[(3R)-1-(Cyclopropylcarbonyl)pyrrolidin-3-yl]methyl}-5-{4-[3-(hydroxymethyl)-2-methyl-2H-indazol-5-yl]phenyl}-4,6-diazaspiro[2.4]hept-4-en-7-one] the inhibition at 10 µM was 81% and the IC50 was 1.17 µM.

Work on `Cn1ncc2cc(-c3ccc(C4=NC5(CCN(C(=O)C6CC6)CC5)C(=O)N4C[C@@H]4CCN(C(=O)C5CC5)C4)cc3)ccc21` [compound 140, 8-(Cyclopropylcarbonyl)-3-{[(3R)-1-(cyclopropylcarbonyl)pyrrolidin-3-yl]methyl}-2-[4-(1-methyl-1H-indazol-5-yl)phenyl]-1,3,8-triazaspiro[4.5]dec-1-en-4-one] yielded an inhibition at 10 µM of 114% and an IC50 of 0.224 µM.

`CC(C)n1ncc2cc(-c3ccc(C4=NC5(CC5)C(=O)N4C[C@@H]4CCN(C(=O)C5CC5)C4)cc3)ccc21` [compound 454, 6-{[(3R)-1-(Cyclopropylcarbonyl)pyrrolidin-3-yl]methyl}-5-{4-[1-(1-methylethyl)-1H-indazol-5-yl]phenyl}-4,6-diazaspiro[2.4]hept-4-en-7-one] gave an inhibition at 10 µM of 53% and an IC50 of ~6.03 µM.
